Data as given in patent publication US20050203191A1, “1-Aminocyclohexane derivatives for the treatment of agitation and other behavioral disorders, especially those associated with alzheimer's disease” (priority 2004, published 2005).

System: patients with mild to moderate dementia of the Alzheimer's type on stable chronic doses of a cholinesterase inhibitor
Experiment: MD-12: randomized, double-blind, placebo-controlled evaluation of memantine added to stable cholinesterase inhibitor
Type: in vivo, human
Settings: MD-12, on cholinesterase inhibitor, week 24, ITT LOCF
Description: The primary endpoints for MD-12 were ADAS-cog and CIBIC-plus. Other endpoints for MD-12 included ADCS-ADL23, NPI, MMSE and RUD (Resource Utilization in Dementia).
The five memantine trials were evaluated using an analysis of patient for a population having an NPI agitation subscale score of >4 ([…]) and for a population having an NPI score of <4 ([…]). For each NPI population, changes in SIB, ADAS-cog and/or ADL were calculated using the least square (LS) mean difference for memantine and placebo-treated patients. Similarly, for each NPI population, the raw mean difference between memantine and placebo was calculated for the CIBIC-plus results.
For primary efficacy measurements the comparison between memantine and placebo was performed using two-way analysis of covariance (ANCOVA) with treatment group and center as the two factors, and the baseline scores as covariate. Both the LOCF imputation approach and the OC approach are performed at the end of the trials.
For secondary efficacy measurements, the comparison between memantine and placebo was performed using two-way analysis of covariance (ANCOVA) with treatment group and center as the two main effects, and the baseline scores as covariate. Descriptive statistics were calculated by Visit. Again, all analyses were performed using both the LOCF imputation approach and the OC approach.
Results of ANCOVA were summarized using least square (LS) means for each treatment group with corresponding standard error (SE), the between-treatment (2-24 week) difference in the least square means with corresponding 95% confidence interval, and the between-treatment p-value corresponds to the SAS Type III sum of squares.
In data Tables 5-19, the Overall Memantine versus Placebo columns of studies MD-01, MD-02, MD-10 and MD-12 used an ANCOVA model with baseline total score as covariate, treatment and study center as factors for SIB, ADL or ADAS-cog; CMH test controlling for study center for CIBIC-Plus. For MZ-9605, results are based on arithmetic means and the Wilcoxon-Mann-Whitney test. The Agitation score columns/NPI/antipsychotics columns, except CIBIS-Plus, calculated the p-values and LS mean differences within the subgroups from an ANCOVA model with baseline total score as covariate, subgroup (yes/no), treatment, and treatment by subgroup interactions as factors. For CIBIS-Plus, the p-values and raw mean differences within a subgroup were calculated using the CMH test controlling for study center.
Patients in the same five trials described above were stratified into two sub-groups in a second analysis, those with an NPI total score in the top quartile (≧75%), or those more severely impaired at baseline, and those with an NPI total score <75%, or less severe impairment at baseline. Similar to as in Example 1, results were evaluated using the change in SIB (cognitive endpoint), and change in ADCS-ADL (functional endpoint), using the LS mean. The change in the CIBIC-plus (global endpoint) was assessed using the raw mean.
A sub-population of patients from the five trials, MD-01, MD-02, MD-10, MD-12, and MZ-9605, were concurrently taking antipsychotics.

[1] = NPI total score ≧=75% (top quartile)
[2] = antipsychotics usage “YES” (N = n)
[3] = antipsychotics usage “YES” (N = y)
[4] = baseline NPI agitation score <4
[5] = baseline NPI agitation score ≧=4

In the case of `CC12CC3CC(C)(C1)CC(N)(C3)C2` [memantine, 1-amino-3,5-dimethyl adamantane], the “ADAS-COG (change) LS Mean Diff., MEM v. PLA (second parameter of Table 18)” value is reported as −0.24, the “ADAS-cog (change) LS Mean Diff., MEM v. PLA” value (NPI total score <75%) is reported as −0.39 and the “ADAS-cog (change) mean” value (NPI total score <75%) is reported as 0.53. The “ADCS-ADL (change) LS Mean Diff., MEM v. PLA” value (NPI total score <75%) was −0.76, the “ADCS-ADL (change) mean” value (NPI total score <75%) was −3.0 and the “CIBIC-PLUS Raw Mean Diff., MEM v. PLA” value (NPI total score <75%) was −0.041. The CIBIC-PLUS mean (NPI total score <75%) was 4.3, the “CIBIC-PLUS Raw Mean Diff., MEM v. PLA” value (NPI total score <75%, listed as MEM) was −0.1 and the “ADAS-cog (change) LS Mean Diff., MEM v. PLA” value [1] was −1.53. The “ADAS-cog (change) mean” value [1] was 0.05, the “ADCS-ADL (change) LS Mean Diff., MEM v. PLA” value [1] was 2.0 and the “ADCS-ADL (change) mean” value [1] was −2.8. For the same compound, the “CIBIC-PLUS Raw Mean Diff., MEM v. PLA” value [1] was 0.0, the CIBIC-PLUS mean [1] was 4.6 and the “ADCS-ADL (change) LS Mean Diff., MEM v. PLA” value (NPI total score ≧=75% (top quartile), listed as MEM) was 2.00. The “ADAS-COG (change) mean (second parameter of Table 18)” value [2] was −2.5, the “ADAS-cog (change) LS Mean Diff., MEM v. PLA” value [2] was −0.74 and the “ADAS-cog (change) mean” value [2] was 0.1. For the same compound, the “CIBIC-PLUS Raw Mean Diff., MEM v. PLA” value [2] was −0.06, the CIBIC-PLUS mean [2] was 4.33 and the “ADAS-COG (change) LS Mean Diff., MEM v. PLA (second parameter of Table 18)” value [3] was “.43”. For the same compound, the “ADAS-COG (change) mean (second parameter of Table 18)” value [3] was −6.0, the “ADAS-cog (change) LS Mean Diff., MEM v. PLA” value [3] was “.4” and the “ADAS-cog (change) mean” value [3] was 3.2. For the same compound, the “CIBIC-PLUS Raw Mean Diff., MEM v. PLA” value [3] was 0.1, the CIBIC-PLUS mean [3] was 4.74 and the “ADAS-cog (change) LS Mean Diff., MEM v. PLA” value [4] was −0.72. For the same compound, the “ADAS-cog (change) mean” value [4] was 0.35, the “ADCS-ADL (change) LS Mean Diff., MEM v. PLA” value [4] was −0.56 and the “ADCS-ADL (change) mean” value [4] was −2.8. For the same compound, the “CIBIC-PLUS Raw Mean Diff., MEM v. PLA” value [4] was −0.1, the CIBIC-PLUS mean [4] was 4.3 and the “ADAS-cog (change) LS Mean Diff., MEM v. PLA” value [5] was −0.27. The “ADAS-cog (change) mean” value [5] was 0.98, the “ADCS-ADL (change) LS Mean Diff., MEM v. PLA” value [5] was 3.54 and the “ADCS-ADL (change) mean” value [5] was −3.7. The “CIBIC-PLUS Raw Mean Diff., MEM v. PLA” value [5] was “no difference”, the CIBIC-PLUS mean [5] was 4.7 and the “CIBIC-PLUS Raw Mean Diff., MEM v. PLA” value (baseline NPI agitation score ≧=4, listed as MEM) was 0.0. For the same compound, the “ADAS-cog (change) LS Mean Diff., MEM v. PLA” value (overall) was −0.70, the “ADAS-cog (change) LS mean” value (overall) was 0.10 and the “ADCS-ADL (change) LS Mean Diff., MEM v. PLA” value (overall) was −0.20. For the same compound, the “ADCS-ADL (change) LS mean” value (overall) was −3.00, the “CIBIC-PLUS LS mean” value (overall) was 4.38 and the “CIBIC-PLUS Raw Mean Diff., MEM v. PLA” value (overall) was −0.04.
